Patent US8581584B2, “Membrane proteins, mechanisms of action and uses thereof” (priority 2010, dated 2013)

Target: transmembrane domain of M2 protein (Influenza A virus, UniProt P0DOF5)
Assay: solid state NMR spectra of uniformly aligned M2 samples with and without drug
Details: five isoleucines 15N labeled; FIG. 31
Excerpt: Uniformly aligned samples of membrane proteins meant that each molecule in the sample will have the same orientation with respect to the magnetic field axis of the NMR spectrometer. In this way the orientation dependent spin interactions such as anisotropic chemical shifts, dipolar and quadrupolar interactions can be observed. The orientations of the individual atomic sites in the protein reflect the orientation of that particular site with respect to the magnetic field.

Sequence of transmembrane domain of M2 protein (P0DOF5 26-46): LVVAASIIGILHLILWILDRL

For `NC12CC3CC(CC(C3)C1)C2` [amantadine], the “change of 15N-Ile resonances in response to drug binding” value was “two of the resonances shift (arrows) dramatically in response to drug binding”.
